Experimental findings from publication PMC7045412, “Natural biased signaling of hydroxycarboxylic acid receptor 3 and G protein-coupled receptor 84” (Cell Communication and Signaling : CCS, 2020) are described below.

Assay [1] concerns the target T1, hydroxycarboxylic acid receptor 3 (HCA3) (Homo sapiens, UniProt P49019).
T1 construct: gene HCAR3
Briefly: DMR ([…]) in receptor-transfected CHO-K1 cells. It counts as cell-based.

The target of assay [2] is G protein-coupled receptor 84 (GPR84) (Homo sapiens, UniProt Q9NQS5). The assay can be described thus: cAMP inhibition, DMR and ERK assays in receptor-transfected CHO-K1/HEK293-T cells. It counts as cell-based.
G protein-coupled receptor 84 (GPR84), sequence (Q9NQS5 whole entry): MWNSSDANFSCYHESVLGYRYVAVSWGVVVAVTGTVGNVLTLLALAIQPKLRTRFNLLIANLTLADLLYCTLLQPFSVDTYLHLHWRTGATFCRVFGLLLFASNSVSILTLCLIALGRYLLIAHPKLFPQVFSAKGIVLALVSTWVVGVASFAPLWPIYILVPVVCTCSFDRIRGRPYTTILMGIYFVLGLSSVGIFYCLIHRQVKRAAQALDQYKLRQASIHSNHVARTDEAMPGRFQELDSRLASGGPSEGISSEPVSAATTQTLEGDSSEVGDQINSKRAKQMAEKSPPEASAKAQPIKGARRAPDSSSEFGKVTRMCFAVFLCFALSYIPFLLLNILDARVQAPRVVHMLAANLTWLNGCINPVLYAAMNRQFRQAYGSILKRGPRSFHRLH

T1 sequence (P49019 whole entry): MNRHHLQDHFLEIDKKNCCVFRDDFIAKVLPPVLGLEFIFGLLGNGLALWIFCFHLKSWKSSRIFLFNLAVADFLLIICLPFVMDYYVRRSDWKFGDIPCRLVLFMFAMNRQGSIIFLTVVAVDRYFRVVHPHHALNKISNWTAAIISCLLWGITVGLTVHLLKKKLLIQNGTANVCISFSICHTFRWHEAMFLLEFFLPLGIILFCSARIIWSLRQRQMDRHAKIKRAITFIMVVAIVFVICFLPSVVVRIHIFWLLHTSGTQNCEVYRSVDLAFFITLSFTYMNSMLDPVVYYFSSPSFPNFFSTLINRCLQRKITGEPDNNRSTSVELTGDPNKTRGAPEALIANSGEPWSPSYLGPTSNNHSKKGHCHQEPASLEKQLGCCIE

`N[C@H](Cc1ccccc1)C(=O)O` [D-Phe, D-phenylalanine]: in assay [1], the “DMR (250 μM) in receptor-transfected CHO-K1 cells” value was “dynasore affected the DMR-response of human and gorilla HCA3 to D-Phe and L-PLA in a similar manner”. Turning to `CCCCCCCC(O)CC(=O)O` (stereo not drawn) [3HDec, 3-hydroxydecanoic acid], the EC50 result in assay [2] was “In contrast, C10 and 3HDec but not 3HO activated GPR84”. Same read-out and setting: for `CCCCCCCCCC(=O)O` [C10, decanoic acid] the value was “C10 and 3HDec activated GPR84”.
